5 substances from patent publication US9833497B2, “Human originated EGF domain proteins and use of the same” (CHENGDU SOURCEBIO LIMITED-LIABILITY COMPANY, priority 2013, dated 2017) can be followed below.

Assay type in all cases: cell-based
In one test the test system is Klebsiella pneumonia. Description: MIC against Gram-negative bacteria: Klebsiella pneumonia. The following applies: for MIC / MIC (μg/mL) K. pneumonia: K. pneumonia, 10 h cultivation at 37° C. In outline:
(§1)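 Bacteria grown in LB at 37° C to McFarland 0.5, resuspended and seeded at 5×10^5 CFU/mL in 96-well plates. Purified human EGF-domain proteins two-fold serially diluted, triplicate wells; cultured at 37° C, shaking 175 rpm. MIC = lowest protein concentration with no growth.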

In the next test the test system is Pseudomonas aeruginosa. Description: MIC against Gram-negative bacteria: Pseudomonas aeruginosa. The following applies: for MIC / MIC (μg/mL) P. aeruginosa: P. aeruginosa, 10 h cultivation at 37° C. A digest of the protocol: as §1
Another test relates to E. coli BL21. Description: MIC against Gram-negative bacteria: E. coli BL21. The following applies: for MIC / MIC (μg/mL) E. coli BL21: E. coli BL21, 10 h cultivation at 37° C. A digest of the protocol: as §1
Another test deals with Proteus mirabilis. Put plainly: MIC against Gram-negative bacteria: Proteus mirabilis. The following applies: for MIC / MIC (μg/mL) P. mirabilis: P. mirabilis, 10 h cultivation at 37° C. In outline:
as §1

The next test relates to Citrobacter diversus. Put plainly: MIC against Gram-negative bacteria: Citrobacter diversus. The following applies: for MIC / MIC (μg/mL) C. diversus: C. diversus, 10 h cultivation at 37° C. A digest of the protocol:
as §1

For another test, the system named is Moraxella catarrhalis. Put plainly: MIC against Gram-negative bacteria: Moraxella catarrhalis. The following applies: for MIC / MIC (μg/mL) M. catarrhalis: M. catarrhalis, 10 h cultivation at 37° C. In outline: as §1
Another test concerns Enterobacter cloacae. Put plainly: MIC against Gram-negative bacteria: Enterobacter cloacae. The following applies: for MIC / MIC (μg/mL) E. cloacae: E. cloacae, 10 h cultivation at 37° C. In outline: as §1
A further test concerns Proteus vulgaris. Put plainly: MIC against Gram-negative bacteria: Proteus vulgaris. The following applies: for MIC / MIC (μg/mL) P. vulgaris: P. vulgaris, 10 h cultivation at 37° C. A digest of the protocol: as §1
A further test deals with Serratia marcescens. Description: MIC against Gram-negative bacteria: Serratia marcescens. The following applies: for MIC / MIC (μg/mL) S. marcescens: S. marcescens, 10 h cultivation at 37° C. In outline: as §1
For a further test, the system named is E. coli DH5α. Put plainly: Antibacterial activity: MIC and growth curve against E. coli DH5α in 96-well plate. The following applies: minimal inhibitory concentration against E. coli DH5α; 96-well plate, 5×10^5 CFU/mL, 37° C., judged after 8 h. A digest of the protocol: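 Log-phase DH5α (OD600 about 0.5, 37° C, 185 rpm in LB) was pelleted, resuspended in fresh LB and seeded at 5×10^5 CFU/mL with recombinant protein at 50, 25 and 12.5 μg/mL (two-fold series), in triplicate. Plates were shaken at 175 rpm, 37° C, and OD600 was read every 30 min. MIC was the lowest concentration with no growth.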

The subject of a further test is Aeromonas hydrophila. Description: MIC against Gram-negative bacteria: Aeromonas hydrophila. The following applies: for MIC / MIC (μg/mL) A. hydrophila: A. hydrophila, 10 h cultivation at 37° C. In outline:
as §1

Setting [1] is: 96-well plate, 5×10^5 CFU/mL, 37° C., 10 h.

Consider “PRT1034 (DENECEQNNGGCSEICVNLKNSYRCECGVGRVLRSDGKTCE; listed as Homo sapiens)”, for which the MIC against Klebsiella pneumonia stood at 12.5 µg/mL; in the test on Pseudomonas aeruginosa, 25 µg/mL; against E. coli BL21 it was 50 µg/mL; against Proteus mirabilis, 50 µg/mL; in the test with Citrobacter diversus, 50 µg/mL; with Moraxella catarrhalis, 12.5 µg/mL. The MIC with Enterobacter cloacae stood at 50 µg/mL; in the test on Proteus vulgaris it was 12.5 µg/mL; in the test on Serratia marcescens, 50 µg/mL; against E. coli DH5α, 25 µg/mL; with Aeromonas hydrophila, 50 µg/mL.

On to “PRT926 (EINECQSNPCVNNGQCVDKVNRFQCLCPPGFTGPVCQ; listed as Homo sapiens)”, for which the MIC against Klebsiella pneumonia worked out at 12.5 µg/mL; with Pseudomonas aeruginosa, 25 µg/mL; with E. coli BL21 it was 50 µg/mL; against Proteus mirabilis, 50 µg/mL; against Citrobacter diversus it was 12.5 µg/mL; in the test with Moraxella catarrhalis, 25 µg/mL. Moreover, the MIC with Enterobacter cloacae stood at 25 µg/mL; in the test on Proteus vulgaris it was 25 µg/mL; against Serratia marcescens, 12.5 µg/mL; against E. coli DH5α, 25 µg/mL; against Aeromonas hydrophila, 50 µg/mL.

For the substance “PRT509 (CNCSTVGSLDFQCNVNTGQCNCHPKFSGAKCTECSRGHWNYPRCNL; listed as Homo sapiens)”, the “MIC against K. pneumonia” value in the test with Klebsiella pneumonia (setting [1]) was 25 µg/mL. Moreover, in the test with Pseudomonas aeruginosa (setting [1]), the “MIC against P. aeruginosa” value was 12.5 µg/mL. For the same substance, in the test with E. coli BL21 (setting [1]), the “MIC against E. coli BL21” value was 25 µg/mL. Also, in the test with Proteus mirabilis (setting [1]), the “MIC against P. mirabilis” value is 12.5 µg/mL. Besides, in the test with Citrobacter diversus (setting [1]), the “MIC against C. diversus” value was found to be 12.5 µg/mL. The “MIC against M. catarrhalis” value against Moraxella catarrhalis (setting [1]) was determined as 12.5 µg/mL. Moreover, in the test with Enterobacter cloacae (setting [1]), the “MIC against E. cloacae” value amounted to 12.5 µg/mL. In the test with Proteus vulgaris (setting [1]), the “MIC against P. vulgaris” value was 12.5 µg/mL. Further, the “MIC against S. marcescens” value in the test with Serratia marcescens (setting [1]) turned out to be 25 µg/mL. The substance further registered an MIC in the test with E. coli DH5α of 12.5 µg/mL. Further, the “MIC against A. hydrophila” value against Aeromonas hydrophila (setting [1]) worked out at 12.5 µg/mL.

Consider “PRT854 (TCSMANCQYGCDVVKGQIRCQCPSPGLQLAPDGRTCV; listed as Homo sapiens)”, for which the “MIC (μg/mL) K. pneumonia” value against Klebsiella pneumonia (5×10^5 CFU/mL) came out at 12.5 µg/mL. The “MIC (μg/mL) P. aeruginosa” value against Pseudomonas aeruginosa (5×10^5 CFU/mL) turned out to be 100 µg/mL. In addition, the “MIC (μg/mL) E. coli BL21” value with E. coli BL21 (5×10^5 CFU/mL) stood at 12.5 µg/mL. Besides, in the test on Proteus mirabilis (5×10^5 CFU/mL), the “MIC (μg/mL) P. mirabilis” value came out at 12.5 µg/mL. Also, in the test on Citrobacter diversus (5×10^5 CFU/mL), the “MIC (μg/mL) C. diversus” value came out at 12.5 µg/mL. For the same substance, in the test with Moraxella catarrhalis (5×10^5 CFU/mL), the “MIC (μg/mL) M. catarrhalis” value came to 50 µg/mL. For the same substance, the “MIC (μg/mL) E. cloacae” value against Enterobacter cloacae (5×10^5 CFU/mL) was 12.5 µg/mL. Also, the “MIC (μg/mL) P. vulgaris” value in the test on Proteus vulgaris (5×10^5 CFU/mL) was 50 µg/mL. Moreover, the “MIC (μg/mL) S. marcescens” value in the test on Serratia marcescens (5×10^5 CFU/mL) came to 12.5 µg/mL. The MIC in the test on E. coli DH5α is 12.5 µg/mL. Also, in the test on Aeromonas hydrophila (5×10^5 CFU/mL), the “MIC (μg/mL) A. hydrophila” value worked out at 12.5 µg/mL.

For the substance “PRT254 (PCLEGGTCILSPKGASCNCPHPYTGDRCE; listed as Homo sapiens)”, the “MIC (μg/mL) K. pneumonia” value in the test on Klebsiella pneumonia (5×10^5 CFU/mL) came out at 12.5 µg/mL. In the test with Pseudomonas aeruginosa (5×10^5 CFU/mL), the “MIC (μg/mL) P. aeruginosa” value is 12.5 µg/mL. Also, the “MIC (μg/mL) E. coli BL21” value in the test on E. coli BL21 (5×10^5 CFU/mL) worked out at 12.5 µg/mL. Moreover, the “MIC (μg/mL) P. mirabilis” value in the test on Proteus mirabilis (5×10^5 CFU/mL) stood at 12.5 µg/mL. Moreover, the “MIC (μg/mL) C. diversus” value against Citrobacter diversus (5×10^5 CFU/mL) was 12.5 µg/mL. In the test with Moraxella catarrhalis (5×10^5 CFU/mL), the “MIC (μg/mL) M. catarrhalis” value was determined as 25 µg/mL. Moreover, in the test with Enterobacter cloacae (5×10^5 CFU/mL), the “MIC (μg/mL) E. cloacae” value amounted to 12.5 µg/mL. The “MIC (μg/mL) P. vulgaris” value with Proteus vulgaris (5×10^5 CFU/mL) is 12.5 µg/mL. For the same substance, the “MIC (μg/mL) S. marcescens” value against Serratia marcescens (5×10^5 CFU/mL) turned out to be 12.5 µg/mL. Further, the MIC in the test on E. coli DH5α stood at 25 µg/mL. In addition, the “MIC (μg/mL) A. hydrophila” value in the test with Aeromonas hydrophila (5×10^5 CFU/mL) came out at 25 µg/mL.
